“Also recorded” adds a separate entry of the source.
Tests used:
[1] = system: fibroblasts isolated from cervical cells of a mouse; test: mRNA expression level of α-SMA in cervical fibroblasts treated with TGF-β1; assay type: cell-based; conditions: 8 μM SB-431542 with TGF-β1
Method: (§1) The experiment process will be described with reference to FIG. 5. Cells were isolated from the cervixes of 4- to 6-week old C57BL/6 mice and subjected to primary cell culture in 60 mm dishes (step p0). After step […] is performed by culturing for 12 to 15 days, the number of fibroblasts was measured, and fibroblasts were seeded in a 6 well dish at a density of about 0.3×10^6 cells/dish, followed by secondary culture (step p2). After 1 day from the secondary culture, it was treated for 2 hours in a serum-free medium, and then treated with 10 ng/ml of TGF-β1 per dish to induce differentiation into myofibroblasts, and experimental group was treated with SB-431542, which is a TGF-1 inhibitor, at each concentration of 0, 2, 8 and 16

cervix of C57BL/6 mice = test: M/C ratio (α-SMA/type I collagen, Western blot) in cervical tissue after cervical excision and 3 weeks of drug administration; assay type: in vivo, mouse
Method: Sexually mature female C57BL/6 mice were used for experiments in vivo. The laboratory was maintained at a constant temperature (22 to 24° C.) with a 12-hour day/night cycle. Partial cervical tissue excision was performed at each 5-week old. Specifically, each mouse was anesthetized by inhalation of 2 to 4% isoflurane, and then the cervix thereof was grasped by using forceps, and an excision was made to a depth of 1 mm using a scalpel. In order to minimize bleeding after excision, each mouse was compressed to stop bleeding. The length of the cervix was 2.5 mm, about 40% of the cervix was excised, and the average weight of the excised tissues was 7 mg.
At the same time as the cervical tissue excision, liquid fibronectin, and SB-431542 dissolved in DMSO were injected into the cervix through the vagina using a feeding needle.
Liquid into the fibronectin (plasma) was infused cervix through the vagina daily for 3 weeks at each dose of 20 mg and 0.2 mg (20 mg, diluted 10 times, expressed as FN (X10)). SB-431542 was dissolved in 5% DMSO, and infused into the cervix through the vagina daily for 3 weeks at each dosage of 20 mg and 0.2 mg (20 mg, diluted 10 times, indicated as SB-431542 (X10). After the drug treatment for 3 weeks, samples were obtained from the proximal cervix and distal cervix regions divided in the cervical tissue (see FIG. 13).
The protein extraction method for confirming the expression of α-SMA and type I collagen (Collagen I) was as follows. After an RIPA buffer (RIPA lysis buffer, 150 mM NaCl, 1% Triton X-100, 1% SD, 0.1% SDS, 50 mM Tris-13 HCl, 2 mM EDTA) and protease inhibitor cocktail (GenDEPOT, P3100-005) were mixed, 100 ul of the mixture was added to separate cervical tissue in each region and pulverized using a homogenizer. After the pulverized product was left on ice for 40 minutes, centrifugation was performed for 15 minutes using a centrifuge (13,000 rpm, 4 degrees). Only the supernatant was used after storage in a new tube. Protein quantification was carried out by a Bradford method (Protein assay dye reagent concentrate buffer, BioRad).
Western blot method for confirming the expression of α-SMA and type I collagen was as follows. The extracted protein was loaded on a 10% SDS PAGE gel at 5 μg each and transferred to a nitrocellulose membrane. After blocking with 5% skim milk, α-smooth muscle actin antibody (1:1000, NSJ Bioreagents, V2001) as the primary antibodies, and type I collagen antibody (1:500, Abcam, ab88147), GAPDH (1:1000, Santa Cruz, sc376559) were reacted at 4° ° C.overnight, and anti-mouse IgG (CellNest, USA) as a secondary antibody was added thereto and reacted for 1 hour at room temperature, and then was developed and detected by using an ECL kit (SuperSignal West Pico PLUS Chemiluminescent Substrate, Thermo Scientific).
For oral administration (PO), the drug was administered to the esophagus through the mouth using a feeding needle at the same time as the cervical tissue excision. SB-431542 was dissolved in 5% DMSO and injected in an amount of 10 mg/kg with each 100 ul for 3 weeks.
For intraperitoneal infusion (IP), the drug was administered intraperitoneally using an insulin syringe at the same time as the cervical tissue excision. SB-431542 was dissolved in 5% DMSO and infused in an amount of 10 mg/kg with each 100 ul for 3 weeks.

[2] = system: fibroblasts isolated from cervical cells of a mouse; test: Western blot of α-SMA and type I collagen in cervical fibroblasts treated with TGF-β1; assay type: cell-based
Method: as §1
UM. Two days after drug treatment, cells were washed with 10× phosphate buffered saline (PBS; Affymetrix), and proteins were extracted with RIPA buffer. Western blot was performed to investigate the expression levels of α-SMA, a marker of myofibroblasts, and COLI, a marker of collagen.
As the primary antibodies, α-smooth muscle actin (1:1000) and type I collagen (1:500) antibody were reacted at 4° C. overnight, and as the secondary antibody, anti-mouse IgG (CellNest, USA) was added thereto and was detected after the reaction for 1 hour at room temperature.

[3] = system: fibroblasts isolated from cervical cells of a mouse; test: Immunofluorescence staining for α-SMA protein in cervical fibroblasts treated with TGF-β1; assay type: cell-based; conditions: treated simultaneously with TGF-β1 and SB-431542
Method: as §1

[4] = system: fibroblasts isolated from cervical cells of a mouse; test: Western blot of α-SMA and type I collagen in cervical fibroblasts treated with TGF-β1; assay type: cell-based; remark: listed apart in the source
[5] = intravaginal, 0.2 mg (X10) daily for 3 weeks, versus cervical excision group
[6] = intravaginal, 20 mg daily for 3 weeks, versus cervical excision group
[7] = plasma fibronectin 2 μg/cm2 per well together with TGF-β1

NC(=O)c1ccc(-c2nc(-c3ccc4c(c3)OCO4)c(-c3ccccn3)[nH]2)cc1 [SB-431542, 4-(5-benzol [1,3]dioxol-5-yl-4-pyrldin-2-yl-1H-imidazol-2-yl)-benzamide]
mRNA expression level of α-SMA [1]: no significant change | M/C ratio (cervix of C57BL/6 mice; intraperitoneal, 10 mg/kg daily for 3 weeks): lower than that of the cervical excision group | M/C ratio (cervix of C57BL/6 mice; [5]): no significant change | M/C ratio (cervix of C57BL/6 mice; [6]): no significant change | M/C ratio (cervix of C57BL/6 mice; oral administration, 10 mg/kg daily for 3 weeks): lower than that of the cervical excision group | expression of α-SMA protein ([2]; 8 μM SB-431542 with 10 ng/ml TGF-β1, two days after treatment): decreased; also recorded: significantly reduced | collagen 1 expression ([2]; SB-431542 with TGF-β1): no effect | fluorescence detection of α-SMA [3]: reduced

TGF-β1: transforming growth factor beta1, used to induce differentiation of fibroblasts into myofibroblasts
collagen 1 expression ([2]; TGF-β1 10 ng/ml): no effect | expression level of α-SMA ([2]; TGF-β1 alone, 10 ng/ml): increased

chondroitin sulfate
increase in α-SMA expression by TGF-β1 ([4]; 50 μg/ml chondroitin sulfate with TGF-β1): slightly inhibited

plasma fibronectin: fibronectin bovine plasma product purchased from Sigma-Aldrich; polypeptide of SEQ ID NO: 1
M/C ratio (cervix of C57BL/6 mice; [5]): decreased | M/C ratio (cervix of C57BL/6 mice; [6]): decreased | collagen expression [4, 7]: slightly decreased | expression level of α-SMA [4, 7]: decreased as much as in the control group | ratio of α-SMA/collagen 1 [4, 7]: reduced

tenascin-C: drug used for wound treatment, purchased from EMD-Millipore
increase in α-SMA expression by TGF-β1 ([4]; 2 μg/ml tenascin-C with TGF-β1): slightly inhibited

B1: TGF-β3: drug used for wound treatment, purchased from Sigma-Aldrich (protein, UniProt P10600 301-412, looked up)
Transforming growth factor …: ALDTNYCFRNLEENCCVRPLYIDFRQDLGWKWVHEPKGYYANFCSGPCPYLRSADTTHSTVLGLYNTLNPEASASPCCVPQDLEPLTILYYVGRTPKVEQLSNMVVKSCKCS
modifications: Transforming growth factor beta-3
notes: drug used for wound treatment, purchased from Sigma-Aldrich
increase in α-SMA expression by TGF-β1 ([4]; 10 μg/ml TGF-β3 with TGF-β1): slightly inhibited

Source: US12016905B2, “Pharmaceutical composition for prevention or treatment of preterm birth” (KOREA UNIVERSITY RESEARCH AND BUSINESS FOUNDATION, priority 2019, dated 2024)
